This note sets out measurements from US9120749B2, “Quinoline derivatives and MELK inhibitors containing the same” (ONCOTHERAPY SCIENCE, INC., priority 2010, dated 2015).

Experiment [1] addresses MELK (Homo sapiens, UniProt Q14680). The experiment in a line: Kinase assay: MELK activity, phosphorylation of FITC-labeled histone H3 peptide measured by IMAP fluorescence polarization. In kind it is biochemical. The conditions noted are these: 50 micro-M ATP, FITC-labeled histone H3 peptide substrate, IMAP fluorescence polarization, read-out: IC50 (μM) (kinase assay). In outline: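 Kinase reactions ran with or without test compound (final DMSO 1%) on a fluorescein-tagged H3 peptide. Progressive binding solution was added to terminate them. After a half-hour room-temperature incubation, polarization was measured.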

In experiment [2] the test system is A549 cells. The experiment in a line: Cell-based assay: anti-proliferative activity, Cell Counting Kit-8, 72 hours (A549). The conditions noted are these: MELK-expressing, Cell Counting Kit-8 at 72 hours. Put shortly:
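Cell Counting Kit-8 read-out of A549 growth after 72 hours of inhibitor exposure, cells plated in 96-well format. Values reported as IC50.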
Background: Tetrazolium dyes change colour on reduction, which living cells bring about.

Experiment [3] has as its system HT-1197 cells. The experiment in a line: Cell-based assay: anti-proliferative activity, Cell Counting Kit-8, 72 hours (HT-1197, negative control without MELK expression). The conditions noted are these: HT1197 cells, no MELK expression (negative control), Cell Counting Kit-8 at 72 hours. Put shortly: (§1)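 First, lysates underwent western blotting with anti-MELK antibody to establish expression. Next, cells went into 96-well plates. Then candidate inhibitors were added. Finally, viability was determined by CCK-8 at 72 h and IC50 computed.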

Experiment [4] relates to T47D cells. The experiment is described as follows: Cell-based assay: anti-proliferative activity, Cell Counting Kit-8, 72 hours (T47D). The conditions noted are these: MELK-expressing, Cell Counting Kit-8 at 72 hours. Put shortly: as §1
Experiment [5] deals with BT-549 cells. The experiment in a line: Cell-based assay: anti-proliferative activity, Cell Counting Kit-8, 72 hours (BT-549). The conditions noted are these: BT549 cells, MELK-expressing, Cell Counting Kit-8 at 72 hours. Put shortly: as §1

Structures can show the parent of a compound that is named as a salt. Where two headings read alike, the source gives them in different places.

Chain of MELK (Q14680 whole entry, looked up): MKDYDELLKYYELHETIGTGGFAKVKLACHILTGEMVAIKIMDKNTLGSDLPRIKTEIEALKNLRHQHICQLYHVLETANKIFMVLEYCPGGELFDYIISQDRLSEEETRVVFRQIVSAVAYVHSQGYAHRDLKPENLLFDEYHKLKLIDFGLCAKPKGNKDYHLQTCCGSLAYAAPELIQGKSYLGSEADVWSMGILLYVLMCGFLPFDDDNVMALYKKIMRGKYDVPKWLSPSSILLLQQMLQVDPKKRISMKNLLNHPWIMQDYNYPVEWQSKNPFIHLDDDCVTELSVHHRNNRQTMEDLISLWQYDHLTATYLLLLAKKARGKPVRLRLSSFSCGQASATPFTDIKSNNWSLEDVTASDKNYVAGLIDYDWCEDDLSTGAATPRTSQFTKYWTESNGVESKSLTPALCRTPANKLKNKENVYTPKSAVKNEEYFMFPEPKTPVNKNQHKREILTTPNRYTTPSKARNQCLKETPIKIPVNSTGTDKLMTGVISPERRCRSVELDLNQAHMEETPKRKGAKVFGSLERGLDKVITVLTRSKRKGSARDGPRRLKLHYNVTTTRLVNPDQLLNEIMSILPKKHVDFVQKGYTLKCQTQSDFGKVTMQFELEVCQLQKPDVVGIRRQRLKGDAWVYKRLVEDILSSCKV

What is called IC50 is the concentration that gives 50% inhibition. Take `COc1cc(-c2ccc3ncc(C(=O)C4CC4)c(N[C@H]4CC[C@H](N(C)C)CC4)c3c2)cc(Cl)c1O` [Example 255, {6-(3-Chloro-4-hydroxy-5-methoxyphenyl)-4-[trans-4-(dimethylamino)cyclohexylamino]quinolin-3-yl}(cyclopropyl)methanone]: the IC50 was 0.0019 µM in experiment [1]; 0.18 µM in experiment [2] (Homo sapiens, A549, 72 h); 1.9 µM in experiment [3] (Homo sapiens, HT1197, 72 h); 0.28 µM in experiment [4] (Homo sapiens, T47D, 72 h); 0.64 µM in experiment [5] (Homo sapiens, BT-549, 72 h).
Regarding `CCN(CC)C1CCC(Nc2c(C(C)=O)cnc3ccc(-c4ccc(O)c(Cl)c4)cc23)CC1` (centres unmarked) [Example 335, 1-{6-(3-Chloro-4-hydroxyphenyl)-4-[4-(diethylamino)cyclohexylamino]quinolin-3-yl}ethanone], the IC50 was determined as 0.021 µM in experiment [1]; 0.29 µM in experiment [2] (Homo sapiens, A549, 72 h); 1.2 µM in experiment [3] (Homo sapiens, HT1197, 72 h); 0.1 µM in experiment [4] (Homo sapiens, T47D, 72 h); 0.65 µM in experiment [5] (Homo sapiens, BT-549, 72 h).
Regarding `COc1cc(-c2ccc3ncc(C(C)=O)c(N[C@H]4CC[C@H](N)CC4)c3c2)cc(Cl)c1O` [Example 259, 1-{4-[trans-4-Aminocyclohexylamino]-6-(3-chloro-4-hydroxy-5-methoxyphenyl)quinolin-3-yl}ethanone], the IC50 in experiment [1] amounted to 0.0024 µM; in experiment [2] (Homo sapiens, A549, 72 h), 0.099 µM; in experiment [3] (Homo sapiens, HT1197, 72 h), 2.5 µM; in experiment [4] (Homo sapiens, T47D, 72 h), 0.057 µM; in experiment [5] (Homo sapiens, BT-549, 72 h), 0.43 µM.
The matching figures for `CC(C)C(=O)c1cnc2ccc(-c3ccc(O)c(Cl)c3)cc2c1N[C@H]1CC[C@H](N)CC1` [Example 219, 1-{4-[trans-4-Aminocyclohexylamino]-6-(3-chloro-4-hydroxyphenyl)quinolin-3-yl}-2-methylpropan-1-one]: 0.023 µM, 0.32 µM, 1.2 µM, 0.11 µM and 0.25 µM.
As for `COc1cc(-c2ccc3ncc(C(=O)C4CC4)c(N4CCC(CN5CCCC5)CC4)c3c2)cc(F)c1O` [Example 307, Cyclopropyl{6-(3-fluoro-4-hydroxy-5-methoxyphenyl)-4-[4-(pyrrolidin-1-ylmethyl)piperidin-1-yl]quinolin-3-yl}methanone], the IC50 worked out at 0.0041 µM in experiment [1]; 0.53 µM in experiment [2] (Homo sapiens, A549, 72 h); 3 µM in experiment [3] (Homo sapiens, HT1197, 72 h); 0.79 µM in experiment [4] (Homo sapiens, T47D, 72 h); 1.2 µM in experiment [5] (Homo sapiens, BT-549, 72 h).
On to `COc1cc(-c2ccc3ncc(S(C)(=O)=O)c(N4CCC(C(C)N(C)C)CC4)c3c2)cc(Cl)c1O` (centres unmarked) [Example 245, 2-Chloro-4-[4-{4-[1-(dimethylamino)ethyl]piperidin-1-yl}-3-(methylsulfonyl)quinolin-6-yl]-6-methoxyphenol], for which the IC50 in experiment [1] is 0.0016 µM; in experiment [2] (Homo sapiens, A549, 72 h) it was 0.25 µM; in experiment [3] (Homo sapiens, HT1197, 72 h) it was 2.3 µM; in experiment [4] (Homo sapiens, T47D, 72 h) it was 0.35 µM; in experiment [5] (Homo sapiens, BT-549, 72 h) it was 0.74 µM.
The like results for `CC(C)CC(=O)c1cnc2ccc(-c3cc(Cl)c(O)c(Cl)c3)cc2c1N[C@H]1CC[C@H](N)CC1` [Example 267, 1-{4-[trans-4-Aminocyclohexylamino]-6-(3,5-dichloro-4-hydroxyphenyl)quinolin-3-yl}-3-methylbutan-1-one dihydrochloride] were, in that order, 0.0022 µM, 0.38 µM, 3 µM, 0.14 µM and 0.72 µM.
The matching figures for `CC(=O)c1cnc2ccc(-c3cc(F)c(O)c(F)c3)cc2c1N[C@H]1CC[C@H](N)CC1` [Example 258, 1-{4-[trans-4-Aminocyclohexylamino]-6-(3,5-difluoro-4-hydroxyphenyl)quinolin-3-yl}ethanone]: 0.04 µM, 0.85 µM, 100 µM, 0.071 µM and 0.16 µM.
For `N[C@H]1CC[C@@H](Nc2c(C(=O)C3CC3)cnc3ccc(-c4cc(F)c(O)c(F)c4)cc23)CC1` [Example 180, [4-(cis-4-Aminocyclohexylamino)-6-(3,5-difluoro-4-hydroxyphenyl)quinolin-3-yl](cyclopropyl)methanone], the IC50 in experiment [1] stood at 0.0026 µM; in experiment [2] (Homo sapiens, A549, 72 h), 0.9 µM; in experiment [3] (Homo sapiens, HT1197, 72 h), 4.5 µM; in experiment [4] (Homo sapiens, T47D, 72 h), 0.17 µM; in experiment [5] (Homo sapiens, BT-549, 72 h), 0.3 µM.
For the molecule `N[C@H]1CC[C@H](Nc2c(C(=O)C3CC3)cnc3ccc(-c4cc(Cl)c(O)c(Cl)c4)cc23)CC1` [Example 157(b), {4-[trans-4-Aminocyclohexylamino]-6-(3,5-dichloro-4-hydroxyphenyl)quinolin-3-yl}(cyclopropyl)methanone dihydrochloride], the IC50 in experiment [1] (dihydrochloride) is 0.003 µM; in experiment [2] (dihydrochloride), 0.3 µM; in experiment [3] (dihydrochloride), 4.7 µM; in experiment [4] (dihydrochloride), 0.096 µM; in experiment [5] (dihydrochloride) it was 0.31 µM.
Turning to `COc1cc(-c2ccc3ncc(C(=O)C4CC4)c(N4CCC(CN(C)C)CC4)c3c2)ccc1O` [Example 133, Cyclopropyl[4-{4-[(dimethylamino)methyl]piperidin-1-yl}-6-(4-hydroxy-3-methoxyphenyl)quinolin-3-yl]methanone], the IC50 came out at 0.0036 µM in experiment [1]; 0.79 µM in experiment [2] (Homo sapiens, A549, 72 h); 1.9 µM in experiment [3] (Homo sapiens, HT1197, 72 h); 0.7 µM in experiment [4] (Homo sapiens, T47D, 72 h); 1.7 µM in experiment [5] (Homo sapiens, BT-549, 72 h).
Turning to `COc1cc(-c2ccc3ncc(C(=O)C4CC4)c(NC[C@H]4CC[C@H](N(C)C)CC4)c3c2)cc(Cl)c1O` [Example 315], the half-inhibitory concentration (IC50) in experiment [1] turned out to be 0.0043 µM; in experiment [2] (Homo sapiens, A549, 72 h), 0.3 µM; in experiment [3] (Homo sapiens, HT1197, 72 h) it was 3 µM; in experiment [4] (Homo sapiens, T47D, 72 h) it was 0.64 µM; in experiment [5] (Homo sapiens, BT-549, 72 h), 1.4 µM.
On to `COc1cc(-c2ccc3ncc(C(C)=O)c(N4CCC(CN(C)C)CC4)c3c2)cc(Cl)c1O` [Example 305, 1-[6-(3-chloro-4-hydroxy-5-methoxyphenyl)-4-{4-[(dimethylamino)methyl]piperidin-1-yl}quinolin-3-yl]ethanone], for which the IC50 in experiment [1] amounted to 0.0022 µM; in experiment [2] (Homo sapiens, A549, 72 h) it was 0.14 µM; in experiment [3] (Homo sapiens, HT1197, 72 h), 3.6 µM; in experiment [4] (Homo sapiens, T47D, 72 h), 0.21 µM; in experiment [5] (Homo sapiens, BT-549, 72 h), 0.33 µM.
The matching figures for `CN1CCN(C2CCN(c3c(C(=O)C4CC4)cnc4ccc(-c5ccc(O)c(Cl)c5)cc34)CC2)CC1` [Example 350, {6-(3-Chloro-4-hydroxyphenyl)-4-[4-(4-methylpiperazin-1-yl)piperidin-1-yl]quinolin-3-yl}(cyclopropyl)methanone]: 0.005 µM, 0.44 µM, 2.5 µM, 0.26 µM and 0.98 µM.
The matching figures for `CC(C)C(=O)c1cnc2ccc(-c3ccc(O)c(Cl)c3)cc2c1N1CCC(CN2CCCC2)CC1` [Example 318, 1-{6-(3-Chloro-4-hydroxyphenyl)-4-[4-(pyrrolidin-1-ylmethyl)piperidin-1-yl]quinolin-3-yl}-2-methylpropan-1-one]: 0.02 µM, 0.87 µM, 1.4 µM, 0.92 µM and 1.8 µM.
The like results for `COc1cc(-c2ccc3ncc(C(=O)C4CC4)c(-c4ccc(CN(C)C)cc4)c3c2)cc(Cl)c1O` [Example 356] were, in that order, 0.0042 µM, 0.45 µM, 3.5 µM, 0.46 µM and 0.87 µM.
For `CC(=O)c1cnc2ccc(-c3cc(F)c(O)c(Cl)c3)cc2c1N1CCC(CN2CCCC2)CC1` [Example 336, 1-{6-(3-Chloro-5-fluoro-4-hydroxyphenyl)-4-[4-(pyrrolidin-1-ylmethyl)piperidin-1-yl]quinolin-3-yl}ethanone], the 50% inhibitory concentration (IC50) is 0.0069 µM in experiment [1]; 0.8 µM in experiment [2] (Homo sapiens, A549, 72 h); 5 µM in experiment [3] (Homo sapiens, HT1197, 72 h); 0.33 µM in experiment [4] (Homo sapiens, T47D, 72 h); 0.85 µM in experiment [5] (Homo sapiens, BT-549, 72 h).
The matching figures for `CC(C1CCN(c2c(C(=O)C3CC3)cnc3ccc(-c4cc(F)c(O)c(Cl)c4)cc23)CC1)N(C)C` (centres unmarked) [Example 269, [6-(3-Chloro-5-fluoro-4-hydroxyphenyl)-4-{4-[1-(dimethylamino)ethyl]piperidin-1-yl}quinolin-3-yl](cyclopropyl)methanone]: 0.0037 µM, 0.44 µM, 1.3 µM, 0.22 µM and 0.5 µM.
As to `CN(C)[C@H]1CC[C@H](CNc2c(C(=O)C3CC3)cnc3ccc(-c4cc(Cl)c(O)c(Cl)c4)cc23)CC1` [Example 325, Cyclopropyl[6-(3,5-dichloro-4-hydroxyphenyl)-4-{[trans-4-(dimethylamino)cyclohexyl]methylamino}quinolin-3-yl]methanone], the IC50 in experiment [1] worked out at 0.011 µM; in experiment [2] (Homo sapiens, A549, 72 h), 0.62 µM; in experiment [3] (Homo sapiens, HT1197, 72 h), 10 µM; in experiment [4] (Homo sapiens, T47D, 72 h), 0.78 µM; in experiment [5] (Homo sapiens, BT-549, 72 h), 1.9 µM.
